The test system of data set [1] is mouse red blood cells. Description: In vitro red blood cell-based assay (oxygen equilibrium curve, Softron analyzer). Particulars: final effector concentration 2 mM, mean ± SD; for P50/P50C: P50C = control with 1% DMSO; for P50: 1% DMSO; for P50 / ∆P50: mouse red blood cells; for ∆P50: ∆P50 = P50 − P50C. The source says:
In the first stage of our research, three series of analogues were designed and synthesized to explore refinement of the hydrophobic parts of 19f, 19m, 24a and 24b; hinge areas of 18g, 19b and 19y; and tail regions of 15c, 15d and 16c, respectively. We used the Softron Analyzer to evaluate the effect of these compounds on the half-blood oxygen saturation(P50) value of red blood cells. The most promising phenoxyaromatic acid compound, efaproxiral, was used as a positive control. […] The results reminded us that the modification of the hydrophobic part or linker extension is beneficial to improve an allosteric effect.
Eight-week-old female C57BL6J mice were purchased from Beijing Vital River Laboratory Animal Technology Co., Ltd. A total of 540 μL mouse blood was added into the 1.5 mL centrifuge tube, followed by adding 60 μL 3.8% sodium citrate. The mixture was then centrifuged at 1500 rpm for 10 min, the supernatant was carefully aspirated, and the cells were washed three times with PBS solution. After mixing packed red blood cells with Alsever’s solution in a ratio of 1:1, a blood gas analyzer (RADIOMETER ABL 90) was used to analyze the red blood cell density and hemoglobin concentration.
All of the compounds were prepared as 200 mM stock solutions in DMSO. Oxygen equilibrium measurements were performed with the Softron analyzer (Softron Medical Products, Beijing, China) using mouse red blood cells. The samples were prepared by adding 3 mg hemoglobin equivalent of red blood cells into 3.92 mL loading buffer (100 mM NaCl, 50 mM bis-Tris at pH 7.2 and 25 °C), followed by 20 μL 10% Dimethicone as a defoamer and 20 μL 20% BSA. Afterwards, 40 μL stock solution was added, and the mixture was loaded to the sample cell and fully deoxygenated by blowing into nitrogen at 37 °C for 15 min. Then, the oxygen equilibrium curve was recorded by blowing into oxygen.

Data set [2] deals with HEK293 cells. Description: Cell Titer-Glo cytotoxicity assay, HEK293. Type of data set: cell-based. As for the experimental part: (§1) For further in vivo evaluation of newly synthesized compounds, 19c and 19t were selected as candidates. Hemoglobin allosteric effectors require a relatively high blood concentration to be effective. Cytotoxicity evaluation was conducted out of consideration for medication safety. HEK293 and U87MG cells were used to evaluate the cytotoxicity.
(§2) Luciferase-transfected human glioma cells (U87-luc) and HEK293 cells were kindly provided by Dr. Nie and cultured in Dulbecco’s Modified Eagle Medium (CM10013, MacGene) with 10% fetal bovine serum (1966173C, Gibco) and 1% penicillin-streptomycin in a humidified atmosphere of 5% CO2 at 37 °C.
(§3) Cells were plated in a 96-well plate at a density of 2000 cells/well and then treated with 19c or 19t at gradient concentrations of 10^1, 10^2, 10^3, 10^4, 10^5, 10^6and 10^7 nM. Compounds 19c and 19t were prepared as the sodium salt by adding saturated sodium bicarbonate in the process of stock solution preparation. Cell viability was evaluated on the indicated days after treatment with a Cell Titer-Glo Luminescent Cell Viability Assay kit (G7572, Promega, Madison, WI, USA) according to the manufacturer’s instructions. All data were normalized to those on day 0 and presented as the mean ± standard deviation (SD).

Data set [3] has as its system U87MG cells. Description: Cell Titer-Glo cytotoxicity assay, U87MG. Type of data set: cell-based, human. As for the experimental part:
as §1, §2, §3
(ATP-based viability assays read luminescence as a measure of living cells.)

Several values for one entry are separate records, joined by “and”; a condition that tells them apart may be missing. Equal entries are not always repeated. Entries after “also recorded” stand apart in the source; their conditions may differ.

For `CC(C)(Oc1ccc(CC(=O)Nc2ccc(-c3ccccc3)cc2)cc1)C(=O)O` [19o, 2-(4-(2-([1,1′-biphenyl]-4-ylamino)-2-oxoethyl)phenoxy)-2-methylpropanoic acid], in data set [1], the P50/P50C is reported as 1.81 ± 0.04, the P50 was determined as 74.56 ± 1.75 mmHg and the “∆P50” value was 33.37 mmHg. Besides, the “∆P50” value in data set [1] (listed as 190) amounted to 33.37 ± 1.75 mmHg.
`CC(C)(Oc1ccc(CC(=O)Nc2cccc(-c3ccccc3)c2)cc1)C(=O)O` [19p, 2-(4-(2-([1,1′-biphenyl]-3-ylamino)-2-oxoethyl)phenoxy)-2-methylpropanoic acid]: in data set [1], the P50/P50C stood at 1.87 ± 0.02; the P50 was determined as 77.10 ± 0.66 mmHg; the “∆P50” value was 35.91 mmHg and 35.91 ± 0.66 mmHg.
Consider `CC(C)(Oc1ccc(CC(=O)Nc2ccc(C#N)cc2)cc1)C(=O)O` [19q, 2-(4-(2-((4-cyanophenyl)amino)-2-oxoethyl)phenoxy)-2-methylpropanoic acid], for which, in data set [1], the P50/P50C is on record as 1.32 ± 0.30, the P50 amounted to 59.60 ± 13.58 mmHg and the “∆P50” value turned out to be 14.36 ± 13.58 mmHg.
Consider `CCN(CC)c1ccc(NC(=O)Cc2ccc(OC(C)(C)C(=O)O)cc2)cc1` [19r, 2-(4-(2-((4-(diethylamino)phenyl)amino)-2-oxoethyl)phenoxy)-2-methylpropanoic acid], for which, in data set [1], the P50/P50C worked out at 1.57 ± 0.02, the P50 is on record as 65.81 ± 6.64 mmHg and the “∆P50” value is 23.97 ± 1.82 mmHg.
`COc1ccc(NC(=O)Cc2ccc(OC(C)(C)C(=O)O)cc2)cc1` [19s, 2-(4-(2-((4-methoxyphenyl)amino)-2-oxoethyl)phenoxy)-2-methylpropanoic acid]: in data set [1], the P50/P50C was 1.45 ± 0.01, the P50 stood at 71.87 ± 0.64 mmHg and the “∆P50” value came to 22.29 ± 0.64 mmHg.
As to `CC(C)(Oc1ccc(/C=C/C(=O)Nc2cc(Cl)cc(Br)c2)cc1)C(=O)O` [19w, (E)-2-(4-(3-((3-bromo-5-chlorophenyl)amino)-3-oxoprop-1-en-1-yl)phenoxy)-2-methylpropanoic acid], in data set [1], the P50/P50C is on record as 1.50 ± 0.08, the P50 is 56.76 ± 2.93 mmHg and the “∆P50” value amounted to 18.85 ± 2.93 mmHg.
The corresponding values for `C=CCN(CC=C)C(=O)Cc1ccc(OC(C)(C)C(=O)O)cc1` [24a, 2-(4-(2-(diallylamino)-2-oxoethyl)phenoxy)-2-methylpropanoic acid] are 1.25 ± 0.21, 55.80 ± 18.99 mmHg and 11.80 ± 11.11 mmHg.
On to `CC1Cc2ccccc2N1C(=O)Cc1ccc(OC(C)(C)C(=O)O)cc1` (stereo not shown) [24b, 2-methyl-2-(4-(2-(2-methylindolin-1-yl)-2-oxoethyl)phenoxy)propanoic acid], for which, in data set [1], the P50/P50C was found to be 1.46 ± 0.12, the P50 was 66.26 ± 5.30 mmHg and the “∆P50” value is 21.02 ± 5.30 mmHg.
The corresponding values for `CC(C)(Oc1ccc(CC(=O)Nc2ccc3c(c2)OCO3)cc1)C(=O)O` [24c, 2-(4-(2-(benzo[d][1,3]dioxol-5-ylamino)-2-oxoethyl)phenoxy)-2-methylpropanoic acid] are 1.58 ± 0.01, 69.62 ± 12.16 mmHg and 25.61 ± 4.27 mmHg.
Take `CC(C)(Oc1ccc(CC(=O)Nc2ccc3ccccc3c2)cc1)C(=O)O` [24d, 2-methyl-2-(4-(2-(naphthalen-2-ylamino)-2-oxoethyl)phenoxy)propanoic acid]: in data set [1], the P50/P50C is listed as 1.93 ± 0.01; the P50 came out at 79.50 ± 0.47 mmHg; the “∆P50” value is 38.31 mmHg and 38.31 ± 0.47 mmHg.
In the case of `CC(C)(Oc1ccc(CC(=O)NC(c2ccccc2)c2ccccc2)cc1)C(=O)O` [24e, 2-(4-(2-(benzhydrylamino)-2-oxoethyl)phenoxy)-2-methylpropanoic acid], in data set [1], the P50/P50C is 1.33 ± 0.24, the P50 was found to be 59.61 ± 20.96 mmHg and the “∆P50” value is recorded as 15.61 ± 13.07 mmHg.
The corresponding values for `CC(C)(Oc1ccc(CC(=O)N(Cc2ccccc2)Cc2ccccc2)cc1)C(=O)O` [24f, 2-(4-(2-(dibenzylamino)-2-oxoethyl)phenoxy)-2-methylpropanoic acid] are 1.23 ± 0.12, 54.51 ± 14.91 mmHg and 10.51 ± 7.02 mmHg.
Regarding `CCCCCCNC(=O)Cc1ccc(OC(C)(C)C(=O)O)cc1` [24g, 2-(4-(2-(hexylamino)-2-oxoethyl)phenoxy)-2-methylpropanoic acid], in data set [1], the P50/P50C is 1.10 ± 0.04, the P50 came to 46.17 ± 7.11 mmHg and the “∆P50” value turned out to be 4.34 ± 2.30 mmHg.
The corresponding values for `CNC(=O)Cc1ccc(OC(C)(C)C(=O)O)cc1` [24h, 2-methyl-2-(4-(2-(methylamino)-2-oxoethyl)phenoxy)propanoic acid] are 1.40 ± 0.11, 58.11 ± 1.93 mmHg and 16.27 ± 2.88 mmHg.
Turning to “(E)-2-(4-(3-((3-iodophenyl)amino)-3-oxoprop-1-en-1-yl)phenoxy)-2-methylpropanoic acid [19v]”, in data set [1], the P50/P50C is reported as 1.71 ± 0.05, the P50 was 77.49 ± 2.11 mmHg, the “K (Hill coefficient of the oxygen dissociation curve at 50% saturation)” value is recorded as 2.23 ± 0.28 and the “∆P50” value came to 32.25 ± 2.11 mmHg.
The like results for “(E)-2-(4-(3-((4-bromophenyl)amino)-3-oxoprop-1-en-1-yl)phenoxy)-2-methylpropanoic acid [19u]” were, in that order, 1.67 ± 0.09, 63.15 ± 3.48 mmHg, 1.96 ± 0.17 and 25.24 ± 3.48 mmHg.
In general, IC50 refers to the concentration at which inhibition is half-maximal. Turning to “(E)-2-methyl-2-(4-(3-((3-(methylthio)phenyl)amino)-3-oxoprop-1-en-1- yl)phenoxy) propanoic acid [19t]”, the “cytotoxicity (summary statement)” value in data set [2] (HEK293 (normal) cells) was “cytotoxic toward both cells with no selectivity; also recorded: cytotoxic to both normal and glioma cells at low micromolar levels without selectivity”. Also, in data set [2] (HEK293 cells, concentration of 10 μm), the cytotoxicity entry is recorded as “showed cytotoxicity”. Moreover, in data set [2] (HEK293 cells, sodium salt stock), the TC50 was 165 µM. Moreover, in data set [1], the P50/P50C was 2.13 ± 0.07; the P50 came to 89.62 ± 2.02 mmHg; the “K (Hill coefficient of the oxygen dissociation curve at 50% saturation)” value is listed as 2.43 ± 0.16; the “∆P50” value was 44.38 mmHg and 44.38 ± 2.02 mmHg. Besides, the “cytotoxicity (summary statement)” value in data set [3] (U87MG (glioma) cells) is “cytotoxic toward both cells with no selectivity; also recorded: cytotoxic to both normal and glioma cells at low micromolar levels without selectivity”. The cytotoxicity result in data set [3] (U87MG cells, concentration of 10 μm) was “showed cytotoxicity”. The IC50 in data set [3] (U87MG cells, sodium salt stock) is 183 µM.

(Values after article PMC9024523, “Phenoxyaromatic Acid Analogues as Novel Radiotherapy Sensitizers: Design, Synthesis and Biological Evaluation” (Molecules, 2022).)
